Test results from a melting point compilation (Tetko et al.; mined from patent text by program, amines drawn as free bases though some values may be those of a salt).
Residues, ends and D or L forms follow the SMILES beside them. *: point of attachment. ONp = O=[N+]([O-])c1ccc(O*)cc1

| SMILES | melting point [°C] |
| --- | --- |
| CCCC1CCC=CCCCC(=O)OCCN1C(=O)OCC1c2ccccc2-c2ccccc21 (stereo unspecified) | 148 to 150 |
| Cc1c(C)c2c(c(C)c1N)OC(C)(C)C2c1ccc(C(C)C)cc1 (stereo unspecified) | 120 to 121 |
| CCNCC1CCN(c2c(F)cc3c(=O)c(C(=O)O)cn(C4CCCC4)c3c2F)C1 (stereo unspecified) | 214 to 217 |
| O=C(NCCNCC1COc2ccccc2O1)C12CC3CC(CC1C3)C2 (stereo unspecified) | 143 to 144 |
| CNC(=O)c1cccc(NC(=O)NCc2ccccc2)c1 | 189 to 190 |
| CN1CCN(C2=Nc3ccccc3Nc3ccsc32)CC1 | 202 to 206 |
| COc1ccc(C(=O)c2cc(F)ccc2F)c(O)c1Cl | 178 to 180 |
| Cc1ncn(Cc2ccc(NC(=O)Nc3ccc(Oc4cc(Cl)ncn4)cc3)cc2C(F)(F)F)c1C | 195 to 196 |
| N#Cc1c(SCCl)nsc1SCCl | 92 to 93 |
| CC(Cl)c1nc2cccnc2[nH]1 (stereo unspecified) | 132 |
| O=c1[nH]c2sccc2c(=O)n1CCN1CCN(c2ccccc2Cl)CC1 | 216 to 217 |
| NC(=O)CNC(=O)c1cccc(-c2cccc3oc(Cc4ccc(F)c(Cl)c4)cc23)c1 | 155 to 156 |
| CNC(=O)N(c1ccccc1)c1ncc(C)n1-c1ccccc1 | 147 |
| O=C(CN1CCC(Cc2ccccc2)CC1)Nc1ccc(O)cc1 | 66 to 70 |
| CCCc1c(OCc2ccccc2C(=O)O)ccc(C(C)=O)c1O | 214 to 216 |
| CC(C)C(NC(=O)c1ccc(Cl)cc1)NC(=NC#N)Nc1cccnc1 (stereo unspecified) | 182 to 184 |
| CCSC(C)(C)C(=O)CC(=O)Nc1cc(NC(=O)C(CC)Oc2ccc(C(C)(C)CC)cc2C(C)(C)CC)ccc1Cl (stereo unspecified) | 65 to 68 |
| CNC(=NCCSCc1[nH]cnc1C)NS(=O)(=O)c1ccccc1 | 156 to 158 |
| COc1cc(OC)c2c(=O)cc(-c3ccc(C)cc3)oc2c1C1=CCN(C)CC1 | 113 to 114 |
| COc1ccccc1N1CCN(CCNc2c(OC)cnn(C)c2=O)CC1 | 144 to 148 |

| SMILES | melting point [°C] |
| --- | --- |
| Cc1ccc(NC(=O)Nc2cccc(Oc3ccc4nc(COc5ccc(CC6SC(=O)NC6=O)cc5)n(C)c4c3)c2)cc1 (stereo unspecified) | 173 to 175 |
| Cc1cc(Cl)ccc1N=CN(C)SN(C)C=Nc1ccc(Cl)cc1C | 124 to 126 |
| C#CCOc1ncc(F)cc1OC | 67 to 69 |
| CCCCN(C)CCc1ccc(Nc2ncc3c(n2)-c2ccccc2[C@H](c2ccc(F)cc2)C3)cc1 | 164 to 166 |
| CCCC(CCC)C(=O)NCC(=O)NCCCCCCNC(=O)n1cc(F)c(=O)[nH]c1=O | 111 to 112 |
| CCOC(=O)[C@@H](CCC(=O)N1c2ccccc2C[C@H]1C(=O)OCC)NC(=O)[C@@H](N)CCCCNSc1ncccc1[N+](=O)[O-] | 95 to 102 |
| CCOC(=O)c1[nH]ccc1N | 197 to 200 |
| COC1=CC2=CCC3C4CC=CC4(C)CCC3C2(C)CC1 (stereo unspecified) | 83 to 92 |
| Cn1ncnc1COc1nn2c(-c3ccccc3)nnc2cc1-c1ccc(Cl)s1 | 244 to 247 |
| Cc1ccccc1SCc1c(CCN(C)C)[nH]c2ccccc12 | 134 to 137 |
| Cc1nc(N2CCCC2)nc2c1c(=O)c(C(=O)O)cn2C1CC1 | 253 |
| COCc1cccc(CC#N)c1[N+](=O)[O-] | 34 to 36 |
| CC(C)CCCC(C)C1CCC2C3CC=C4CC(OS(C)(=O)=O)CCC4(C)C3CCC12C (stereo unspecified) | 119 to 120 |
| O=C(CN(Cc1ccccc1)c1c(C(=O)O)[nH]c2cc(Cl)cc(Cl)c12)c1ccccc1 | 266 to 267 |
| CC(=O)S[C@H]1CO[C@@H](c2ccccc2)OC1 | 94 to 95 |
| CC(C)CNC(=O)c1ccc(C2(F)CC2c2ccc(Cl)cc2)cc1 (stereo unspecified) | 140 |
| O=C(NC(C(=O)O)c1ccsc1)OCc1ccccc1 (stereo unspecified) | 115 to 117 |
| CCc1nc(OC)c(NC(=O)N2CCN(c3cc(C)cc(C)c3)CC2)cc1C(=O)NC(C)C(=O)Nc1cc(CO)cc(Nc2c3ccccc3nc3ccc(C)cc23)c1 (stereo unspecified) | 164 to 166 |
| Cc1ccc(-c2ccc3c(c2)C=C(C(=O)Nc2ccc(CN4CCCCC4)cc2)C3)cc1 | 219 to 220 |
| O=C1CCC(c2ccccc2)(c2ccccc2)[C@@H]2CN(C(=S)Cc3ccccc3)C[C@H]12 (racemic) | 221 |

| SMILES | melting point [°C] |
| --- | --- |
| C[Si](C)(C)C/C=C/[C@@H](Cc1ccccc1)C(=O)N1C(=O)OC[C@H]1Cc1ccccc1 | 132 to 135 |
| CCc1nc2c(N)nc(C)c(C)c2n1CCOCCN1CCCS1(=O)=O | 157 to 159 |
| CCCOc1nc(N)nc2nc[nH]c12 | 198 to 200 |
| N#Cc1ccc(-c2ccncc2OC2SCC(O)C(O)C2O)cc1 (stereo unspecified) | 238 |
| O=C(Nc1cccc(C(F)(F)F)c1)c1ccccc1NCCc1ccncc1 | 151 to 152 |
| Cc1ccc2cccc(OCc3c(Cl)ccc(S(=O)(=O)N4CCC[C@H]4C(=O)N(C)CCNC(=O)OC(C)(C)C)c3Cl)c2n1 | 88 |
| CC(C)n1nc(-c2sc(NC(=O)Cc3ccccc3)nc2-c2ccccc2)ccc1=O | 250 to 252 |
| N#CC(SSC(C#N)c1c[nH]c2ccccc12)c1c[nH]c2ccccc12 (stereo unspecified) | 169 to 170 |
| CCOC(=O)COC(CC)c1ccc(-c2ccc(Cl)cc2)cc1 (stereo unspecified) | 170 to 172 |
| CC(C)C[C@H](NC(=O)OCc1ccco1)C(=O)N[C@@H](Cc1ccccc1)C(=O)CSCc1ccco1 | 115 to 118 |
| COc1cccc(N(C)C(=O)C(C)Br)c1 (stereo unspecified) | 55 to 56 |
| COc1ccc(C(=O)Oc2ccc(O)cc2)cc1C12CC3CC(CC(C3)C1)C2 | 236 to 237 |
| CC(C)(C)[Si](C)(C)N1C(=O)CC1C(=O)NC(Cc1c[nH]c2ccccc12)C(=O)OCc1ccccc1 (stereo unspecified) | 60 to 65 |
| NC(=O)[C@@H]1C[C@@H]2C[C@@H]2N1C(=O)[C@@H](NC(=O)OCc1ccccc1)C12CC3CC(CC(O)(C3)C1)C2 | 105 to 106 |
| O=C(Nc1cccc2c1C(=O)c1c-2n[nH]c1C1CCN(C(=O)C2CCCNC2)CC1)NN1CCOCC1 (stereo unspecified) | 169 to 170 |
| CC(C)c1cccc(C(C)C)c1NC(=S)NC1CCCC(C(F)(F)F)C1 (stereo unspecified) | 67 to 75 |
| CC(C)CC(NC(=O)C1CCCN1)C(=O)NCC(=O)Oc1ccc([N+](=O)[O-])cc1 (stereo not drawn) (H-Pro-Leu-Gly-ONp; configuration not given here) | 173 |
| Cc1cc(C)c(Cn2cc(C(=O)C(=O)NC3=CC(=O)OC3)c3ccccc32)c(C)c1 | 288 to 290 |
| CC(C)(C)OC(=O)NCC1CN(C(c2ccccc2)c2ccccc2)C1 | 108 to 110 |
| Cc1nccn1-c1ccc(COc2cccc(C3(C(N)=O)CCCC3)c2)cc1 | 163 to 164 |

Further lines, results first:

| melting point [°C] | SMILES |
| --- | --- |
| 81 | COC(=O)N1CCCC2(Cc3ccc(Br)cc3)C(=O)N(c3cc(Cl)nc(Cl)c3)C(=O)N12 (stereo unspecified) |
| 177 to 180 | CC(C)c1cc(Cc2cnc(N)nc2N)cc(C(C)C)c1N |
| 275 to 278 | CC1(C)CCC(C)(C)c2cc3c(cc21)CCc1nc(-c2ccc(C(=O)O)cc2)sc1-3 |
| 240 to 245 | CC(C)n1c(=O)nc(-c2ccc(N(C)C)cc2)c2cc3c(cc21)OCO3 |
| 265 to 268 | CCn1c(=O)c2c(nc(/C=C/c3cc(O)c4c(c3)OCO4)n2C)n(CC)c1=O |
| 178 to 182 | CC(C)c1ccc2c(c1)C(=O)c1ccc(C(=O)O)cc1CC2 |
| 170 to 172 | CCCCOc1cc(C(=O)O)cc(N)c1C(=O)c1ccc(C)cc1 |
| 323 to 324 | CC(C)n1c(=O)[nH]c2ncc(-c3ccc(O)cc3)nc21 |
| 145 to 151 | CCC(CC)COc1cccc2nc(C)c(C(=O)O)c(N)c12 |
| 170 to 172 | Nc1ccc(S(=O)(=O)CI)cc1 |
| 225 to 226 | O=C(O)C1=Cc2cc(Br)cc(Br)c2OC1C(F)(F)F (stereo unspecified) |
| 110 to 113 | CC(=O)Nc1ccc(C=O)cc1Cl |
| 190 to 193 | C=CCc1cc(C(=O)c2ccc(Cl)c(S(=O)(=O)N=CN(C)C)c2)c(Cl)c(Cl)c1O |
| 252 to 253 | COC(=O)c1cc2cc([N+](=O)[O-])cc(O)c2o1 |
| 211 to 214 | COc1ccc(-c2csc(Nc3ccccn3)n2)cc1OC |
| 179 to 181 | Cc1ccc(Cc2ccc3nc(N)sc3c2)s1 |
| > 300 | NS(=O)(=O)c1cc2nc(O)c(O)nc2c2ccccc12 |
| 210 to 212 | O=C1CC=C(c2c[nH]c3ccc([N+](=O)[O-])cc23)CC1 |

| melting point [°C] | SMILES |
| --- | --- |
| 172 to 174 | Cc1cccc2ncc(C(=O)NC3CCCCCC3)c(=O)n12 |
| 132 to 134 | COc1nc(C)cnc1N(C(=O)OCC(C)C)S(=O)(=O)c1cccnc1-c1ccc([Si](C)(C)C)cc1 |
| 202 to 203 | CNC(=O)c1cc(C#N)cc(C)c1N |
| 226 to 227 | Cc1nnc(C2=C(O)c3ccccc3S(=O)(=O)N2C)o1 |
| 238 to 240 | CCCc1nnc2n1N=C(c1ccc([N+](=O)[O-])cc1)c1cc(OC)c(Br)cc1C2 |
| 308 to 310 | COc1ccc2c(C3=C(c4cn(C)c5cc([N+](=O)[O-])ccc45)C(=O)NC3=O)cn(C)c2c1 |
| 210 to 212 | Cc1cc2c(-c3ccccc3)c3n(c(=O)c2cc1C)CCCC3O (stereo unspecified) |
| 149 | COc1ccc(C(=O)c2cc(-c3cccnc3)c(N3CCOCC3)s2)cc1 |
| 240 to 242 | COc1ccc(Cn2c(S)nnc2C(N)=O)cc1 |
| 260 to 262 | CN1C(=O)CCc2cc(N3C[C@H](C(N)=O)OC3=O)cc(F)c21 |
| 108 to 109 | Cc1nc(C)c(C(C)(O)c2cccnc2)s1 (stereo unspecified) |
| 250 to 252 | NC(=O)NCc1cc2cc(CN3CCOCC3)cc3c(=O)c(C(=O)NCc4ccc(Cl)cc4)cn1c23 |
| 260 | O=C(O)CCCOc1ccc2nc3c(cc2c1)CC(=O)N3 |
| 162 to 164 | N#Cc1cnn(-c2c(Cl)cc(C(F)(F)F)cc2Cl)c1N1CCC1=O |
| 188 to 189 | NS(=O)(=O)c1cc2cc(C=O)sc2s1 |
| 134 to 136 | Cc1ccc(S(=O)(=O)Nc2ccccc2C#N)cc1 |
| 142 to 143 | CCOC(=O)C1C(c2ccc([N+](=O)[O-])cc2)CC(=O)N1C (stereo unspecified) |
| 91 to 92 | c1cc(CN2CCCC2)cc(OCCCNc2nc3ccccc3s2)c1 |
